Experimental data taken from paper PMC12125541, “Timed chromatin invasion during mitosis governs prototype foamy virus integration site selection and infectivity” (Nucleic Acids Research, 2025).
* marks the point of attachment. Biotin = O=C1N[C@H]2[C@H](CS[C@H]2CCCCC(=O)*)N1

Experiments:
[1] = system: recombinant NCPs; test: Streptavidin pull-down of recombinant nucleosomes with biotinylated Gag CBS peptides; format: binding, human; settings: 2 h at 4°C; for pull-down of nucleosomes: 75–150 mM NaCl, 1.5 μg biotinylated peptide, 3 μg NCP, Coomassie gel
Excerpt: Recombinant nucleosome core particles (NCPs) (mono-nucleosomes) were assembled as previously described. Briefly, individual human histones H2A, H2B, H3, and H4 were purchased (The Histone Source; Colorado State University) and octamers were assembled by dialysis. The Widom-601 DNA [25] was generated by restriction enzyme digestion of a concatenated construct and purified by anion exchange chromatography onto a POROS-HQ column. NCPs were assembled with a ratio 1.1:1 (1.1 octamer:1 DNA) by successive steps of salt dialysis against TEN buffer (0–2 M NaCl, 10 mM Tris, pH 7.5, 1 mM ethylenediaminetetraacetic acid, 1 mM Dithiothreitol (DTT)). NCPs were kept at −80°C in 0 mM NaCl TEN buffer.
Twenty microliters of streptavidin beads (Dynabeads™ MyOne™ Streptavidin T1; Invitrogen; Thermo Fisher Scientific) were used per condition. StreptaBeads were washed twice with pull-down buffer (20 mM Tris–HCl, pH 7.5, 0.1% NP-40, 10% glycerol, 75–150 mM NaCl, 0.5 mM DTT, and 1 mM Phenylmethylsulfonyl fluoride (PMSF)) containing 75 mM of NaCl and 100 μg of bovine serum albumin (BSA), followed by one wash in the same conditions, without BSA. 1.5 μg of Gag CBS (chromatin binding site) biotinylated peptide and 3 μg of recombinant NCPs were added per condition, in a final volume of 800 μl of pull-down buffer with corresponding NaCl concentrations. The reaction mix was incubated for 2 h on a rotation wheel, at 4°C. Beads were washed three times with the corresponding NaCl concentration buffer, and bound proteins were eluted by the addition of 10 μl of SDS Sample Buffer 2.5×. Samples were separated by sodium dodecyl sulfate–polyacrylamide gel electrophoresis, and analyzed after colloidal Coomassie blue staining.

[2] = system: recombinant NCPs; test: BLI of immobilized biotinylated peptides with recombinant NCP; format: binding, human; settings: for BLI interaction with nucleosomes: peptide on streptavidin biosensor, NCP 10, 25, 50 or 100 nM, 1× PBS pH 7.4, 0.02% Tween 20, 0.1% BSA, representative of three experiments
Excerpt: Recombinant nucleosome core particles (NCPs) (mono-nucleosomes) were assembled as previously described [13]. Briefly, individual human histones H2A, H2B, H3, and H4 were purchased (The Histone Source; Colorado State University) and octamers were assembled by dialysis. The Widom-601 DNA [25] was generated by restriction enzyme digestion of a concatenated construct and purified by anion exchange chromatography onto a POROS-HQ column. NCPs were assembled with a ratio 1.1:1 (1.1 octamer:1 DNA) by successive steps of salt dialysis against TEN buffer (0–2 M NaCl, 10 mM Tris, pH 7.5, 1 mM ethylenediaminetetraacetic acid, 1 mM Dithiothreitol (DTT)). NCPs were kept at −80°C in 0 mM NaCl TEN buffer.
Quantitative interaction experiments were performed by biolayer interferometry (BLI), using a BLItz instrument (Octet® N1; Sartorius). Two different runs were performed: the first one, into water, to coat biosensors with biotinylated peptides (Table 1) and the second, into Blitz buffer [1× phosphate buffer saline, pH 7.4, 0.02% (v/v) Tween 20, 0.1% (w/v) BSA], to fix NCPs on immobilized peptides. All steps were performed under 2200 rpm shaking speed. Streptavidin biosensors (Octet®SA Biosensors; Reference 18-0009; Sartorius) were first pre-wet for at least 10 min with water. The baseline, with only water, was measured for 60 s. Ten micromolar Gag CBS biotinylated peptides (or H4 biotinylated peptides), diluted in water, were loaded onto the biosensors, for 180 s, to reach a binding of ∼1.5 nm, followed by a dissociation step of 180 s. Following the first run, coated biosensors were equilibrated for at least 10 min in Blitz buffer. The second run started with 60 s of baseline, followed by the association step, where biosensors were dipped into serial dilutions of NCPs (10, 25, 50, or 100 nM), for 300 s. […] For each time point measured, data of this second control (binding of Blitz buffer on biosensors loaded with biotinylated Gag WT peptide) were subtracted to every condition and were plotted on curves, using Prism 9 software.

[3] = system: NCP saturated with H4 tails (H2A–H2B acidic patch); test: BLI competition: immobilized Gag CBS peptides versus NCP saturated with H4 tails; format: binding, human; settings: mean of two experiments; for binding to NCP saturated with WT H4 tail: 100 nM NCP pre-incubated with 100 μM H4 WT peptide at least 30 min at room temperature
Procedure: Quantitative interaction experiments were performed by biolayer interferometry (BLI), using a BLItz instrument (Octet® N1; Sartorius). Two different runs were performed: the first one, into water, to coat biosensors with biotinylated peptides (Table 1) and the second, into Blitz buffer [1× phosphate buffer saline, pH 7.4, 0.02% (v/v) Tween 20, 0.1% (w/v) BSA], to fix NCPs on immobilized peptides. All steps were performed under 2200 rpm shaking speed. Streptavidin biosensors (Octet®SA Biosensors; Reference 18-0009; Sartorius) were first pre-wet for at least 10 min with water. The baseline, with only water, was measured for 60 s. Ten micromolar Gag CBS biotinylated peptides (or H4 biotinylated peptides), diluted in water, were loaded onto the biosensors, for 180 s, to reach a binding of ∼1.5 nm, followed by a dissociation step of 180 s. Following the first run, coated biosensors were equilibrated for at least 10 min in Blitz buffer. The second run started with 60 s of baseline, followed by the association step, where biosensors were dipped into serial dilutions of NCPs (10, 25, 50, or 100 nM), for 300 s. Finally, the dissociation step was performed in Blitz buffer, for 300 s. For competition experiments, the second run started with 60 s of baseline in Blitz buffer, followed by 300 s of association step. During this step, solutions of 100 nM of NCPs were pre-incubated with or without 100 μM of H4 peptide [wild type (WT) or mutant, non-biotinylated], in Blitz buffer, for at least 30 min at room temperature. Finally, the dissociation step was performed in Blitz buffer, for 180 s. Nonspecific binding controls were performed, such as binding of 100 nM of NCPs on biosensors without biotinylated peptides loaded, as well as binding of Blitz buffer on loaded biosensors. For each time point measured, data of this second control (binding of Blitz buffer on biosensors loaded with biotinylated Gag WT peptide) were subtracted to every condition and were plotted on curves, using Prism 9 software.

[4] = molecular target: Gag Y537Q biotinylated peptide (PFV Gag CBS Y537Q) (prototype foamy virus (PFV)); test: BLI; biotinylated Gag CBS peptides on streptavidin biosensors; NCP 10, 25, 50 or 100 nM in solution; 1× PBS pH 7.4, 0.02% Tween 20, 0.1% BSA; BLItz instrument

Substance: Biotin-GGYNLQPRTYQPQRYG-OH [R540Q CBS peptide, Biotinylated PFV Gag CBS peptide with Arg540Gln substitution]
- pull-down of nucleosomes, physiological salt ([1]; 125–150 mM NaCl): virtually eliminated binding
- pull-down of nucleosomes, hypotonic conditions ([1]; low salt (below 125 mM NaCl)): reduced binding
- BLI interaction with nucleosomes [2]: almost complete reduction
- binding to NCP saturated with WT H4 tail [3]: no interaction with the NCP

Substance: Biotin-SGRGKGGKGLGKGGAKRHAAVLA-OH [H4 mut, reference compound]
- binding of H4 tail peptide to purified NCPs ([2]; BLI, immobilized H4 peptide, Supplementary Fig. S7): retains some residual binding

Substance: Recombinant nucleosome core particle (human histone octamer on Widom-601 DNA) (from UniProt P04908 1-130; P06899 1-126; P68431 1-136; P62805 1-103) (complex)
- fold reduction of the BLI interaction against the WT CBS peptide [4]: 5 fold

Substance: Biotin-GGQNLRPRTYQPQRYG-OH [Y537Q CBS peptide, Biotinylated PFV Gag CBS peptide with Tyr537Gln substitution]
- pull-down of nucleosomes [1]: affected nucleosome interaction, though largely in a salt-independent manner
- binding to NCP saturated with WT H4 tail [3]: unable to effectively compete
- binding to NCP saturated with H4 mut tail ([3]; 100 nM NCP pre-incubated with 100 μM H4 mut peptide at least 30 min at room temperature): unable to effectively compete

Substance: Biotin-GGYNLRPRTYQPQRYG-OH [WT CBS peptide]
- pull-down of nucleosomes [1]: efficiently pulled down nucleosomes across tested salt concentrations
- BLI interaction with nucleosomes [2]: strongest BLI interaction
- binding to NCP saturated with WT H4 tail [3]: reached the same level as without H4 tails
